Experimental data from patent US9980973B2, “Bicyclic heterocycle compounds and their uses in therapy” (ASTEX THERAPEUTICS LIMITED, priority 2012, dated 2018).
Structures can show the parent of a compound that is named as a salt. Where two headings read alike, the source gives them in different places.

What was measured:
[1] = target: T1, BIR3 domain of human XIAP (Homo sapiens, UniProt P98170); assay: XIAP in vitro competitive displacement binding assay (fluorescence polarization); details: for inhibition at 0.04 µM: 1 h, PI at 0.04 μM, read-out: Xiap IC50 or PI μM (PI)
T1 construct: BIR3 domain of human XIAP (residues 252-350) fused to a His-tag; His-tag (cleaved yes); made in house; host or cells: Escherichia coli
T1 sequence (P98170 252-350): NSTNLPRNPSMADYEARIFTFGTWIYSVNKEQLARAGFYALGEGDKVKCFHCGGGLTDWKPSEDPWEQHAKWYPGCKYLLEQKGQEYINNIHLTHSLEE

[2] = system: EVSA-T (human breast carcinoma); assay: Anti-proliferative activity, Alamar Blue assay, EVSA-T; format: cell-based; details: Homo sapiens, EVSA-T
[3] = 72 h, EVSA-T cells, 72 hours, Alamar Blue, read-out: EVSA-T prolif
[4] = read-out: EC50 in EVSA-T cell line assays
[5] = plain number = IC50, average where more than one data point, read-out: Xiap IC50 or PI μM (IC50)

| SMILES | inhibition at 0.04 µM [1] [%] | EC50 [2, 3] [nM] | EC50 [2, 4] [nM] | IC50 [1, 5] [µM] | IC50 ([1]; or at least 50% inhibition of the activity at 0.1 μM, read-out: IC50 in the XIAP assay) [µM] |
| --- | --- | --- | --- | --- | --- |
| CCC(F)(F)c1cnc2c(c1)N(C(=O)CN1C[C@@H](C)NC[C@@H]1CN1[C@H](C)COC[C@H]1C)CC2(C)C [Example 43, 1-[6-(1,1-Difluoropropyl)-3,3-dimethyl-1H,2H,3H-pyrrolo[3,2-b]pyridin-1-yl]-2-[(2R,5R)-2-{[(3R,5R)-3,5-dimethylmorpholin-4-yl]methyl}-5-methylpiperazin-1-yl]ethan-1-one, dihydrochloride] | 62 | 8.3 | < 1000 |  |  |
| C[C@@H]1CN(CC(=O)N2CC(C)(C)c3ncc(Cc4ccc(F)cc4)cc32)[C@@H](CN2C[C@@H]3C[C@H]2CO3)CN1 [Example 7, 1-{6-[(4-Fluorophenyl)methyl]-3,3-dimethyl-1H,2H,3H-pyrrolo[3,2-b]pyridin-1-yl}-2-[(2R,5R)-5-methyl-2-[(1S,4S)-2-oxa-5-azabicyclo[2.2.1]heptan-5-ylmethyl]piperazin-1-yl]ethan-1-one dihydrochloride] |  | 6.2 | < 1000 | 0.16 |  |
| COC[C@@]1(C)COCCN1C[C@H]1CN[C@H](C)CN1CC(=O)N1CC(C)(C)c2cnc(Cc3ccc(F)cc3F)cc21 [Example 98, 1-{6-[(2,4-Difluorophenyl)methyl]-3,3-dimethyl-1H,2H,3H-pyrrolo[3,2-c]pyridin-1-yl}-2-[(2R,5R)-2-{[(3S)-3-(methoxymethyl)-3-methylmorpholin-4-yl]methyl}-5-methylpiperazin-1-yl]ethan-1-one dihydrochloride] | 62 | 7.3 | < 1000 |  | < 0.1 |
| C[C@@H]1CN(CC(=O)N2CC(C)(C)c3nnc(Cc4ccc(F)cc4)cc32)[C@@H](CN2[C@H](C)COC[C@H]2C)CN1 [Example 87, 2-[(2R,5R)-2-{[(3R,5R)-3,5-Dimethylmorpholin-4-yl]methyl}-5-methylpiperazin-1-yl]-1-{3-[(4-fluorophenyl)methyl]-7,7-dimethyl-5H,6H,7H-pyrrolo[3,2-c]pyridazin-5-yl}ethan-1-one dihydrochloride] |  | 0.66 | < 1000 | 0.14 |  |
| CC1N(C[C@H]2CN[C@H](C)CN2CC(=O)N2CC(C)(C)c3ncc(Cc4ccc(F)cc4)cc32)CCOC1(C)C (stereo partly drawn) [Example 32, 1-{6-[(4-Fluorophenyl)methyl]-3,3-dimethyl-1H,2H,3H-pyrrolo[3,2-b]pyridin-1-yl}-2-[(2R,5R)-5-methyl-2-[(2,2,3-trimethylmorpholin-4-yl)methyl]piperazin-1-yl]ethan-1-one dihydrochloride] | 42 | 0.7 | < 1000 |  |  |
| COC[C@@H]1COCCN1C[C@H]1CN[C@H](C)CN1CC(=O)N1CC(C)(C)c2cnc(Cc3ccc(F)cc3)cc21 [Example 96, 1-{6-[(4-Fluorophenyl)methyl]-3,3-dimethyl-1H,2H,3H-pyrrolo[3,2-c]pyridin-1-yl}-2-[(2R,5R)-2-{[(3R)-3-(methoxymethyl)morpholin-4-yl]methyl}-5-methylpiperazin-1-yl]ethan-1-one dihydrochloride] | 49 | 1.7 | < 1000 |  |  |
| C[C@@H]1CN(CC(=O)N2CC(C)(C)c3ccc(Cc4ccc(F)cc4)cc32)[C@@H](CN2[C@H](C)COC[C@H]2C)CN1 [Example 49, 2-[(2R,5R)-2-{[(3R,5R)-3,5-Dimethylmorpholin-4-yl]methyl}-5-methylpiperazin-1-yl]-1-{6-[(4-fluorophenyl)methyl]-3,3-dimethyl-2,3-dihydro-1H-indol-1-yl]ethan-1-one, dihydrochloride] | 44 | 1.1 | < 1000 |  |  |
| C[C@@H]1CN(CC(=O)N2CC(C)(C)c3ncc(Cc4ccc(F)cc4)cc32)[C@@H](CN2CC3CC2CO3)CN1 (stereo partly drawn) [Example 20, 1-{6-[(4-Fluorophenyl)methyl]-3,3-dimethyl-1H,2H,3H-pyrrolo[3,2-b]pyridin-1-yl}-2-[(2R,5R)-5-methyl-2-{2-oxa-5-azabicyclo[2.2.1]heptan-5-ylmethyl}piperazin-1-yl]ethan-1-one dihydrochloride] |  | 2.8 | < 1000 | 0.14 |  |
| CCCC(F)(F)c1cc2c(cn1)C(C)(C)CN2C(=O)CN1C[C@@H](C)NC[C@@H]1CN1CCOC[C@@]1(C)CO (single isomer, unassigned) [Example 68, dihydrochloride] | 69 | 22 | < 1000 |  |  |
| COC[C@@H]1COCCN1C[C@H]1CN[C@H](C)CN1CC(=O)N1CC(C)(C)c2ncc(Cc3ccc(F)cc3)cc21 [Example 1, 1-{6-[(4-Fluorophenyl)methyl]-3,3-dimethyl-1H,2H,3H-pyrrolo[3,2-b]pyridin-1-yl}-2-[(2R,5R)-2-{[(3R)-3-(methoxymethyl)morpholin-4-yl]methyl}-5-methylpiperazin-1-yl]ethan-1-one dihydrochloride] | 35 | 2.9 | < 1000 |  |  |
| CCCC(F)(F)c1cc2c(cn1)C(C)(C)CN2C(=O)CN1C[C@@H](C)NC[C@@H]1CN1CCN(C(C)=O)C[C@H]1C [Example 60, 2-[(2R,5R)-2-{[(2R)-4-Acetyl-2-methylpiperazin-1-yl]methyl}-5-methylpiperazin-1-yl]-1-[6-(1,1-difluorobutyl)-3,3-dimethyl-1H,2H,3H-pyrrolo[3,2-c]pyridin-1-yl]ethan-1-one, dihydrochloride] | 74 | 6.7 | < 1000 |  |  |
| C[C@@H]1CN(CC(=O)N2CC(C)(C)c3ncc(Cc4ccc(F)cc4)cc32)[C@@H](CN2CCN(C)C(=O)[C@H]2C)CN1 [Example 34, (3R)-4-{[(2R,5R)-1-(2-{6-[(4-Fluorophenyl)methyl]-3,3-dimethyl-1H,2H,3H-pyrrolo[3,2-b]pyridin-1-yl}-2-oxoethyl)-5-methylpiperazin-2-yl]methyl}-1,3-dimethylpiperazin-2-one dihydrochloride] | 42 | 0.85 | < 1000 |  |  |
| C[C@@H]1CN(CC(=O)N2CC(C)(C)c3ncc(Cc4ccc(F)cc4)cc32)[C@@H](CN2C[C@H](C)NC(=O)[C@H]2C)CN1 [Example 48, (3R,6S)-4-{[(2R,5R)-1-(2-(6-[(4-Fluorophenyl)methyl]-3,3-dimethyl-1H,2H,3H-pyrrolo[3,2-b]pyridin-1-yl}-2-oxoethyl)-5-methylpiperazin-2-yl]methyl}-3,6-dimethylpiperazin-2-one, dihydrochloride] | 49 | 4.3 | < 1000 |  |  |
| C[C@@H]1CN(CC(=O)N2CC(C)(C)c3ncc(Cc4ccc(F)cc4)cc32)[C@@H](CN2CCCNC(=O)C2)CN1 [Example 46, 4-{[(2R,5R)-1-(2-{6-[(4-Fluorophenyl)methyl]-3,3-dimethyl-1H,2H,3H-pyrrolo[3,2-b]pyridin-1-yl}-2-oxoethyl)-5-methylpiperazin-2-yl]methyl}-1,4-diazepan-2-one, dihydrochloride] |  | 36 | < 1000 | 0.13 |  |
| C[C@@H]1CN(CC(=O)N2CC(C)(C)c3ncc(C(O)c4c(F)cccc4F)cc32)[C@@H](CN2[C@H](C)COC[C@H]2C)CN1 (single isomer, unassigned) [Example 117, 1-{(R or S)-6-[(2,6-Difluorophenyl)(hydroxy)meth-yl]-3,3-dimethyl-1H,2H,3H-pyrrolo[3,2-]pyridin-1-yl}-2-[(2R,5R)-2-{[(3R,5R)-3,5-dimethylmorpholin-4-yl]methyl}-5-methylpiperazin-1-yl]ethan-1-one dihydrochloride] | 41 |  |  |  |  |
